pKd: −log10 of the molar value. Read-outs that look alike come from different tables or passages of the source.
How the values were obtained:
TGFBR1 [1] = molecular target: T1, TGFBR1 (Homo sapiens, UniProt P36897); assay: TGFBR1 binding KD (Table S3)
T1 sequence (P36897 34-503): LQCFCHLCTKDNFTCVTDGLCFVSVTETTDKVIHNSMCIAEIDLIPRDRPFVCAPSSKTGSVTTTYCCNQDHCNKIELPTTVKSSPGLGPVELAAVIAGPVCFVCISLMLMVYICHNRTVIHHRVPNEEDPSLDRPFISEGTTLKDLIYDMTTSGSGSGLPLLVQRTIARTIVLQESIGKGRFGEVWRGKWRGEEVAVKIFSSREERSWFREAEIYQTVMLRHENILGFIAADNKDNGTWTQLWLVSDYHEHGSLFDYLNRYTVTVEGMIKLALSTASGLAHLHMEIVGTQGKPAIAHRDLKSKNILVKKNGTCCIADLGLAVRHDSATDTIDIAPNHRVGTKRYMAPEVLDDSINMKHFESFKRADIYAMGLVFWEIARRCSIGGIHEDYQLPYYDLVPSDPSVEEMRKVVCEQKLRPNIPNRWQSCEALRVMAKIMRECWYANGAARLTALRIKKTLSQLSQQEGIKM
From the text: Supplement KAUP_A_2095834_SM5251.zip/Supplementary Tables R7.xlsx, sheet "Table S3 - Analogues"

PIKFYVE = PIKFYVE (Homo sapiens, UniProt Q9Y2I7); assay: KINOMEscan PIKFYVE; format: binding; settings: kinase PIKFYVE; NEW KINOMEscan
PKNB(M.tuberculosis) = PKNB(M.tuberculosis) (Mycobacterium tuberculosis, UniProt P9WI81); format: binding
ACVR1B = molecular target: T2, ACVR1B (Homo sapiens, UniProt P36896); assay: KINOMEscan ACVR1B; format: binding
T2 sequence (P36896 24-505): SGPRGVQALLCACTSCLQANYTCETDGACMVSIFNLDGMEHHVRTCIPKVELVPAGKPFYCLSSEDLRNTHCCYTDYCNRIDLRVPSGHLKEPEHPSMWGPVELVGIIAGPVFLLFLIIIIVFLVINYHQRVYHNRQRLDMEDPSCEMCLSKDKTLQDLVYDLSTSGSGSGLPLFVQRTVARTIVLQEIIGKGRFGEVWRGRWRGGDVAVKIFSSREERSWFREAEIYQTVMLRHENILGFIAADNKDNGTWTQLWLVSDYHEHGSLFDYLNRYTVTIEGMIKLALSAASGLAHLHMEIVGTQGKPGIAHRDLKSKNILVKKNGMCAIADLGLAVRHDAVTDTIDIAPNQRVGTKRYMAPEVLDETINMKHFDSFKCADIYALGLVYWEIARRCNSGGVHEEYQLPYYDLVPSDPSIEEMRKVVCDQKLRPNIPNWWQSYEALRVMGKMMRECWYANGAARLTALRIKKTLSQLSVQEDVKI

CDC42BPG/DMPK2 = CDC42BPG/DMPK2 (Homo sapiens, UniProt Q6DT37); format: binding
TGFBR1 [2] = molecular target: T1, TGFBR1; assay: KINOMEscan TGFBR1; format: binding
PRKD1 = molecular target: T3, PRKD1 (Homo sapiens, UniProt Q15139); assay: KINOMEscan PRKD1; format: binding; settings: NEW KINOMEscan
T3 sequence (Q15139 1-912): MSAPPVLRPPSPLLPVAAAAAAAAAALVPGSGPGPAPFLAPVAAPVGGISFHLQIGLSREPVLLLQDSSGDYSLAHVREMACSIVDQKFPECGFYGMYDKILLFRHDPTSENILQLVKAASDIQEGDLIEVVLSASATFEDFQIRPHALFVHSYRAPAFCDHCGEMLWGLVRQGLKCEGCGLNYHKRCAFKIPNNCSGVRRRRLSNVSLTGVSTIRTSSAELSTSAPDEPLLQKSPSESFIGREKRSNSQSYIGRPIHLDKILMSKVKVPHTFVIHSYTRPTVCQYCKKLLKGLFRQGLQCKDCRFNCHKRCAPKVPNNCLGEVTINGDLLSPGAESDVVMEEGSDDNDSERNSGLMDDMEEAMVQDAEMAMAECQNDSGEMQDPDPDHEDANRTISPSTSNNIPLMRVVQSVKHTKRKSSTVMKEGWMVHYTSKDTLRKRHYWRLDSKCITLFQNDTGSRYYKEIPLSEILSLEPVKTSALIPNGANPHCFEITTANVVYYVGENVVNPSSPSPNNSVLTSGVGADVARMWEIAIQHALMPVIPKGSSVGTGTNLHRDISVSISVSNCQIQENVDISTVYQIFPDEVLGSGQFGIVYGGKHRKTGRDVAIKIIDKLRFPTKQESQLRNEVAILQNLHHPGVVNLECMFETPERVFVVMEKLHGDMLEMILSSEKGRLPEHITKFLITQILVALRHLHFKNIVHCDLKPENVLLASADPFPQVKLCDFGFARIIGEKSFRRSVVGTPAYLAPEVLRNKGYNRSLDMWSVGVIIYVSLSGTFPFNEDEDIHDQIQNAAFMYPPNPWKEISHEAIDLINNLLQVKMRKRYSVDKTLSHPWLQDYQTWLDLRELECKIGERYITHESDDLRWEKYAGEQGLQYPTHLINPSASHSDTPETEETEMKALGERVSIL

MTOR = MTOR (Homo sapiens, UniProt P42345); assay: KINOMEscan MTOR; format: binding; settings: NEW KINOMEscan

CDC42BPG/DMPK2, sequence (Q6DT37 whole entry): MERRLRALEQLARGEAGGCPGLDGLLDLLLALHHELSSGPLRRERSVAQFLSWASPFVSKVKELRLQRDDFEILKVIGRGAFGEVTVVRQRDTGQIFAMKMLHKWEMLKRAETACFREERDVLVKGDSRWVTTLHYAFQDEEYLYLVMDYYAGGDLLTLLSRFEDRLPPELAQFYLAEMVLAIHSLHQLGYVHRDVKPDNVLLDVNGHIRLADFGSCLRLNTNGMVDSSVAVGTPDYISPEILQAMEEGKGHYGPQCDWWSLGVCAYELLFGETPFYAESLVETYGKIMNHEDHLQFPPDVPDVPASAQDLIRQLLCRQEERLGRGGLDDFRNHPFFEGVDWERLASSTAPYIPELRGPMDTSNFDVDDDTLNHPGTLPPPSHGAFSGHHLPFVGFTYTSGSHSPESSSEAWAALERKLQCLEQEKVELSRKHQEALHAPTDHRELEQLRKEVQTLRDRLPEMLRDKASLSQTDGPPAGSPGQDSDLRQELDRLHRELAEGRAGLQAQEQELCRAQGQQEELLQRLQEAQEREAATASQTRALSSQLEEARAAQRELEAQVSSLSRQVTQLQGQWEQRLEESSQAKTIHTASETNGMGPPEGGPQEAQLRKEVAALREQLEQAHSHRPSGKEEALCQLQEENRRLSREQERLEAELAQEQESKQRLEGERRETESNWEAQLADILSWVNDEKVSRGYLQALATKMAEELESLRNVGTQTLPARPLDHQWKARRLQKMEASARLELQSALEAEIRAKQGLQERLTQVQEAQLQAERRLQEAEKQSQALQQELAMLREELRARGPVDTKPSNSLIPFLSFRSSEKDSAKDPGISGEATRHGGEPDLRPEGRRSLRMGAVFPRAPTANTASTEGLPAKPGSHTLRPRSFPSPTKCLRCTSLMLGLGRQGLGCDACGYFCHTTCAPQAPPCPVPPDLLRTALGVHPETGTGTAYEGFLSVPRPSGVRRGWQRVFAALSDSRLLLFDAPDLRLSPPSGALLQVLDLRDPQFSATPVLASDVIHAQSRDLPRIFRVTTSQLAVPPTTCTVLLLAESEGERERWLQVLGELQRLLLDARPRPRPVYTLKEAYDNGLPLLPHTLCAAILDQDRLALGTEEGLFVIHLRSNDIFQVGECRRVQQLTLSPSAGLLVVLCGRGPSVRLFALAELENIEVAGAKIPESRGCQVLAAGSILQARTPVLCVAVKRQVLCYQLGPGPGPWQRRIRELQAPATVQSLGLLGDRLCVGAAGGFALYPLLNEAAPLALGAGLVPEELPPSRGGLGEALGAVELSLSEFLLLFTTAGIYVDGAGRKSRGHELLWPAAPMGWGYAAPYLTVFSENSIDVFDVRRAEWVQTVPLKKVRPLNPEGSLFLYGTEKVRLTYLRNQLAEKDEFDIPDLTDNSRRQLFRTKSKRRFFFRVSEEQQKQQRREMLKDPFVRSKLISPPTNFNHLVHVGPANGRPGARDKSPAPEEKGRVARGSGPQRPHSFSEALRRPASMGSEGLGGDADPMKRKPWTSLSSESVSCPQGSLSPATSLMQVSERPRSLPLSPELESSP
PIKFYVE, sequence (Q9Y2I7 whole entry): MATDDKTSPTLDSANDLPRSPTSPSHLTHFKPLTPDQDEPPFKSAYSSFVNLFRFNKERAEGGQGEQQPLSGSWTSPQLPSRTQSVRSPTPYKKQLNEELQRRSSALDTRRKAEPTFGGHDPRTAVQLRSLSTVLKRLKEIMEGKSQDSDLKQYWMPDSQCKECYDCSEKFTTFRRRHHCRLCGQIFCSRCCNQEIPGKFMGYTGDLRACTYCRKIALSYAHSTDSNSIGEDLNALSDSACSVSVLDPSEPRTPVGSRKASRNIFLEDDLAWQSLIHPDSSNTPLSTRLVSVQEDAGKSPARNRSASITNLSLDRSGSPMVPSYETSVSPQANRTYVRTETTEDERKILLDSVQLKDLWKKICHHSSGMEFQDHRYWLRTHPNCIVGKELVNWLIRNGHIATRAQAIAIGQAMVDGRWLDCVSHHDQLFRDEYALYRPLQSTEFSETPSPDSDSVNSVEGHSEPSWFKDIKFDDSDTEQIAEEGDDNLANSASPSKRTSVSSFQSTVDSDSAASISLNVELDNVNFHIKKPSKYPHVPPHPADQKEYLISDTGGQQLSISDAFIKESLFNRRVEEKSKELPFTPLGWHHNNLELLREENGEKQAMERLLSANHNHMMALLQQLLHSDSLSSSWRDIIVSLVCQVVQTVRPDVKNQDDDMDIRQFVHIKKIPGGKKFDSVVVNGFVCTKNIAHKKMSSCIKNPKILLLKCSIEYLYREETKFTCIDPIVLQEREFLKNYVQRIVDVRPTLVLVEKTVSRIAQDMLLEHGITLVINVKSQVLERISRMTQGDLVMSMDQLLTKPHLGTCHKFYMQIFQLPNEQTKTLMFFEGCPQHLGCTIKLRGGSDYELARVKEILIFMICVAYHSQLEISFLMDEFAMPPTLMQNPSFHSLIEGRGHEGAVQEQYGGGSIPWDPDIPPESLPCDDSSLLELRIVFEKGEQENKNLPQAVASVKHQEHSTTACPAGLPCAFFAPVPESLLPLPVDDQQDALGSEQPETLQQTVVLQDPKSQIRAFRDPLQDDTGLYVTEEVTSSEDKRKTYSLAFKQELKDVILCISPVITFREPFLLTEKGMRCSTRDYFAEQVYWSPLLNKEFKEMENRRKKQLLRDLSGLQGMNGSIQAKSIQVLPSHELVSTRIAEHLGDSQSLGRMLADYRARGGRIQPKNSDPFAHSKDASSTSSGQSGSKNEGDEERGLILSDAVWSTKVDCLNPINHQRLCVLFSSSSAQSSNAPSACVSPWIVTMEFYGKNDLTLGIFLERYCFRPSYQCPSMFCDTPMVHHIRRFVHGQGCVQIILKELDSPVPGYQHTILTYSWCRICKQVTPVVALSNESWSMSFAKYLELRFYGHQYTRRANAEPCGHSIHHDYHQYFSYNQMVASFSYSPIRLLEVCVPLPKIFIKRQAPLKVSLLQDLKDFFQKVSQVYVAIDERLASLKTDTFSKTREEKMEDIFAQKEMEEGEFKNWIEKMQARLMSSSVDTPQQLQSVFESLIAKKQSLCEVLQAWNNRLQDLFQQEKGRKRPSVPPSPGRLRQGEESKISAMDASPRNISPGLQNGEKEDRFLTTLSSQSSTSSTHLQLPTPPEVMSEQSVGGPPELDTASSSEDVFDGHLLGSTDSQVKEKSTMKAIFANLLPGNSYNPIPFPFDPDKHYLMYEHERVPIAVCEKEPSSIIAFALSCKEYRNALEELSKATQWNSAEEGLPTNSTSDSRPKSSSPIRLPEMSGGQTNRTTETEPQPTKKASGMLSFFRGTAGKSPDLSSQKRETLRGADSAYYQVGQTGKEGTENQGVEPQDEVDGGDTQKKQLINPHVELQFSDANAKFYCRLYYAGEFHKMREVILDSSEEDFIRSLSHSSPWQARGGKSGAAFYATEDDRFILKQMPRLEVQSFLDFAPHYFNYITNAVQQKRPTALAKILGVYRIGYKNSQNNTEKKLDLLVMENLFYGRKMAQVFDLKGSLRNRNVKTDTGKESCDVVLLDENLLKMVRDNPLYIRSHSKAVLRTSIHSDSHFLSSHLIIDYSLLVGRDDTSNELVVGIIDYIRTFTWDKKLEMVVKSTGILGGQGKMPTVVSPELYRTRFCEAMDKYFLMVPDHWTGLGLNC
PKNB(M.tuberculosis), sequence (P9WI81 whole entry, looked up): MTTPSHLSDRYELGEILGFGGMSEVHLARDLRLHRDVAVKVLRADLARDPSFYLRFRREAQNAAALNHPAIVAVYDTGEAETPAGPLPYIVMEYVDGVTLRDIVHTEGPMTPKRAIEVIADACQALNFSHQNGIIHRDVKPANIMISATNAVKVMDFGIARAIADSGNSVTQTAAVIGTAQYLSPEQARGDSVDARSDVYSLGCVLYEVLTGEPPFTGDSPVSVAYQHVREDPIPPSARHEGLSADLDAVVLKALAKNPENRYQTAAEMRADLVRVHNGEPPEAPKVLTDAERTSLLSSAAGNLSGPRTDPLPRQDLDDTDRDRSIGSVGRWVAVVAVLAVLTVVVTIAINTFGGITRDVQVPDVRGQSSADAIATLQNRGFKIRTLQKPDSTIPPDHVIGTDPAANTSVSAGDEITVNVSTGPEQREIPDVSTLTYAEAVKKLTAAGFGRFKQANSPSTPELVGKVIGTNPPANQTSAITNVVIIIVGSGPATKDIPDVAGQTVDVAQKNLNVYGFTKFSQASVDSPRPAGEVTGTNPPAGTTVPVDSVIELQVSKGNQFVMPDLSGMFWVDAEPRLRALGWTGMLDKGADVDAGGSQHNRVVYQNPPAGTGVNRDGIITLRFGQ

Cc1cccc(-c2nc(Nc3ccc4ncsc4c3)c3ccccc3n2)n1 [NK140]
pKd (TGFBR1 [1]): 5.30

Cc1cccc(-c2nc(Nc3ccc4nn(C)cc4c3)c3ccccc3n2)n1 [NK167]
KINOMEscan PIKFYVE (PIKFYVE): 0
KINOMEscan PKNB(M.tuberculosis) (PKNB(M.tuberculosis)): 12
KINOMEscan ACVR1B (ACVR1B): 20
KINOMEscan CDC42BPG/DMPK2 (CDC42BPG/DMPK2): 0
KINOMEscan TGFBR1 (TGFBR1 [2]): 21
KINOMEscan PRKD1 (PRKD1): 0
KINOMEscan MTOR (MTOR): 0

Cc1cccc(-c2nc(Nc3ccncc3)c3ccccc3n2)n1 [NK215]
pKd (TGFBR1 [1]): 8.02

Cc1cccc(-c2nc(N(C)c3ccc4ncsc4c3)c3ccccc3n2)n1 [NK-161]
KINOMEscan PIKFYVE (PIKFYVE): 16
KINOMEscan PKNB(M.tuberculosis) (PKNB(M.tuberculosis)): 9
KINOMEscan ACVR1B (ACVR1B; ACVR1B, NEW KINOMEscan): 28
KINOMEscan CDC42BPG/DMPK2 (CDC42BPG/DMPK2): 21
KINOMEscan TGFBR1 (TGFBR1 [2]; TGFBR1, NEW KINOMEscan): 12
KINOMEscan PRKD1 (PRKD1): 46
KINOMEscan MTOR (MTOR): 4

From article PMC9851200, “Multiparameter phenotypic screening for endogenous TFEB and TFE3 translocation identifies novel chemical series modulating lysosome function” (Autophagy, 2022)
